For orientation: IC50 means the point on the concentration scale where inhibition reaches its midpoint.

Each structure is given as a SMILES string. Read-outs that look alike come from different tables or passages of the source.

The target of assay [1] is T1, hBRR2 (spliceosomal RNA helicase BRR2) (Homo sapiens, UniProt O75643). In words: crystal soaking, X-ray structure ([…] Å); also U4/U6 unwinding inhibition. Also on record: gene SNRNP200; hBRR2T1 (residues 395-2129), N-terminal His tag not cleaved, baculovirus/High Five insect cells; isolated, without hJab1deltaC, in U4*/U6 unwinding assay. Type of assay: biochemical.
Assay [2] concerns the target T1, hBRR2 (spliceosomal RNA helicase BRR2). Put plainly: co-crystal structure (X-ray, […] Å). Also noted: gene SNRNP200; hBRR2T1, residues 395-2129. The class given is binding.
Assay [3] shares this target. Put plainly: crystal soaking, X-ray structure ([…] Å); also U4/U6 unwinding inhibition. The class given is biochemical. Also on record: gene SNRNP200; hBRR2T1 (residues 395-2129), N-terminal His tag not cleaved, baculovirus/High Five insect cells; isolated, without hJab1deltaC, in U4*/U6 unwinding assay. The source holds these as a separate data set.

T1 sequence (O75643 395-2129): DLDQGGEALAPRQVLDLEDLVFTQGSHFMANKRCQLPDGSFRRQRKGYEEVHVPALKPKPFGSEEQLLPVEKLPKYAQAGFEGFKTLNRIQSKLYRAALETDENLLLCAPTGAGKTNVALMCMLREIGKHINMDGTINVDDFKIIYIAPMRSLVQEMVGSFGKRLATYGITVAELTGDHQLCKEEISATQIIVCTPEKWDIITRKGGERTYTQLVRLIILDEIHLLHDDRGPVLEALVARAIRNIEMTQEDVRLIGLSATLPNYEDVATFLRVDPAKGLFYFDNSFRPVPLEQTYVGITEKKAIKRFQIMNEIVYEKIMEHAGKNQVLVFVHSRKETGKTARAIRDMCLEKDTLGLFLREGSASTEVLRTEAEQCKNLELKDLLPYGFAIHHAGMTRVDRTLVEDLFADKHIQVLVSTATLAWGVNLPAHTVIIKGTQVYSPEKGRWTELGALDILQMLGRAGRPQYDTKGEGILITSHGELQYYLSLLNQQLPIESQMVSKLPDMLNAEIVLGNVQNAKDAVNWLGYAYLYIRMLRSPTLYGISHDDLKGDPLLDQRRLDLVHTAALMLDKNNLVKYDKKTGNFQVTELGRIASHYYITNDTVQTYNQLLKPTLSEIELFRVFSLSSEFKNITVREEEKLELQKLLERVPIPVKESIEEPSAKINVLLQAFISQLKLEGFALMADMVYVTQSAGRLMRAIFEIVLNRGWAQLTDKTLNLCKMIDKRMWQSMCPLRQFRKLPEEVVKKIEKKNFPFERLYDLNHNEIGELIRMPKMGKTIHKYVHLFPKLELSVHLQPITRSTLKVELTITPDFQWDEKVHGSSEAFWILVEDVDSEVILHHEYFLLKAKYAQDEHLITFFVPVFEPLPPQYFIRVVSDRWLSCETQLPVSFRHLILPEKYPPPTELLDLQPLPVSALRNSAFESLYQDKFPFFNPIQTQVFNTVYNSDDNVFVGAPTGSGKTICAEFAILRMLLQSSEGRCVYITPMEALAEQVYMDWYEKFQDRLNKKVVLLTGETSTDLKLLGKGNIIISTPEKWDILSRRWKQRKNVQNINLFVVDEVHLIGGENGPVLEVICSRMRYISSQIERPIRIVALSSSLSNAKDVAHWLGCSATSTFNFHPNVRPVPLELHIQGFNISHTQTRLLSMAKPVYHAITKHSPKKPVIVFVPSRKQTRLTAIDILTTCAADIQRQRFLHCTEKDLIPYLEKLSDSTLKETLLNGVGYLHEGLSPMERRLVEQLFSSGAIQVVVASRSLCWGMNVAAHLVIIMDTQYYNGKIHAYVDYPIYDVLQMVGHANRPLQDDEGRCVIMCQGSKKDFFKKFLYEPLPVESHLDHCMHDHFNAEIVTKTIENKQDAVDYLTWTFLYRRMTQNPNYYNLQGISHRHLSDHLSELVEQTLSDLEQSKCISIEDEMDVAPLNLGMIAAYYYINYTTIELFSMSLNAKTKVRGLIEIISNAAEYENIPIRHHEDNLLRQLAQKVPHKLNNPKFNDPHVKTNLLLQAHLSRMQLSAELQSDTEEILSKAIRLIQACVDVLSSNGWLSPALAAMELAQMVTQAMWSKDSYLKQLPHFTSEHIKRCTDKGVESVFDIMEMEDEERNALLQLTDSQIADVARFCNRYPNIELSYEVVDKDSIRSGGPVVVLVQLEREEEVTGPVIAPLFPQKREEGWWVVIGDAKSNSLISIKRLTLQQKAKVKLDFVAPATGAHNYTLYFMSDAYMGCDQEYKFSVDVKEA

On to `O=S(=O)(NO)c1ccccc1` [compound 24, Piloty's acid], for which, in assay [1], the IC50 is above 90 µM.

On to `[H]/N=C(/N)NS(=O)(=O)c1ccc(N)cc1` [SG, 4-amino-N-(aminoiminomethyl)benzolsulfonamide], for which the “co-crystal structure (X-ray, 2.87 Å)” value in assay [2] is recorded as “In this hBRR2^T1 crystal structure, sulfaguanidine is positioned at the interface between the two helicase cassettes”.

Regarding `O=S(=O)(N=C(S)S)c1ccccc1` [compound 50], the IC50 in assay [3] was above 1000 µM.

The values above are taken from article PMC10071561, “Conformation-dependent ligand hot spots in the spliceosomal RNA helicase BRR2” (Acta Crystallographica. Section D, Structural Biology, 2023).
